Data taken from ChEMBL document CHEMBL4052714, “Synthesis and antibacterial activity of novel 4″-O-(1-aralkyl-1,2,3-triazol-4-methyl-carbamoyl) azithromycin analogs” (2017).
Converted amounts (≈) assume the structure as drawn.

Tests used:
Assay type in all cases: functional
Streptococcus pneumoniae [1] = assay: Antibacterial activity against erythromycin-susceptible Streptococcus pneumoniae ATCC 49619
Escherichia coli = assay: Antibacterial activity against Escherichia coli ATCC 25922
Staphylococcus aureus [2] = assay: Antibacterial activity against methicillin-susceptible Staphylococcus aureus ATCC 29213
Pseudomonas aeruginosa = assay: Antibacterial activity against Pseudomonas aeruginosa ATCC 27853
Streptococcus pyogenes [3] = assay: Antibacterial activity against erythromycin-susceptible Streptococcus pyogenes isolate S2
Streptococcus pneumoniae [4] = assay: Antibacterial activity against erythromycin-resistant Streptococcus pneumoniae AB11 expressing ermB/mefA gene
Streptococcus pneumoniae [5] = assay: Antibacterial activity against erythromycin-resistant Streptococcus pneumoniae A22072 expressing mefA gene
Staphylococcus aureus [6] = assay: Antibacterial activity against erythromycin-susceptible Staphylococcus aureus ATCC 25923
Streptococcus pneumoniae [7] = assay: Antibacterial activity against erythromycin-resistant Streptococcus pneumoniae B1 expressing ermB gene
Streptococcus pyogenes [8] = assay: Antibacterial activity against erythromycin-resistant Streptococcus pyogenes isolate R2
Streptococcus pneumoniae [9] = assay: Potency index, ratio of azithromycin MIC to compound MIC for erythromycin-resistant Streptococcus pneumoniae A22072 expressing mefA gene
Streptococcus pneumoniae [10] = assay: Potency index, ratio of azithromycin MIC to compound MIC for erythromycin-resistant Streptococcus pneumoniae AB11 expressing ermB/mefA gene
Streptococcus pneumoniae [11] = assay: Potency index, ratio of azithromycin MIC to compound MIC for erythromycin-resistant Streptococcus pneumoniae B1 expressing ermB gene
Streptococcus pneumoniae [12] = assay: Potency index, ratio of clarithromycin MIC to compound MIC for erythromycin-resistant Streptococcus pneumoniae B1 expressing ermB gene
Streptococcus pneumoniae [13] = assay: Potency index, ratio of clarithromycin MIC to compound MIC for erythromycin-resistant Streptococcus pneumoniae AB11 expressing ermB/mefA gene
Streptococcus pneumoniae [14] = assay: Potency index, ratio of clarithromycin MIC to compound MIC for erythromycin-resistant Streptococcus pneumoniae A22072 expressing mefA gene

SMILES	MIC (Streptococcus pneumoniae [1])	MIC (Escherichia coli)	MIC (Staphylococcus aureus [2])	MIC (Pseudomonas aeruginosa)	MIC (Streptococcus pyogenes [3])	MIC (Streptococcus pneumoniae [4])	MIC (Streptococcus pneumoniae [5])	MIC (Staphylococcus aureus [6])	MIC (Streptococcus pneumoniae [7])	MIC (Streptococcus pyogenes [8])	Ratio (Streptococcus pneumoniae [9])	Ratio (Streptococcus pneumoniae [10])	Ratio (Streptococcus pneumoniae [11])	Ratio (Streptococcus pneumoniae [12])	Ratio (Streptococcus pneumoniae [13])	Ratio (Streptococcus pneumoniae [14])
CC[C@H]1OC(=O)[C@H](C)[C@@H](O[C@H]2C[C@@](C)(OC)[C@@H](OC(=O)NCc3cn(Cc4c(Cl)cccc4Cl)nn3)[C@H](C)O2)[C@H](C)[C@@H](O[C@@H]2O[C@H](C)C[C@H](N(C)C)[C@H]2O)[C@](C)(O)C[C@@H](C)CN(C)[C@H](C)[C@@H](O)[C@]1(C)O	0.5 µg/mL (≈ 0.484 µM)	32 µg/mL (≈ 31 µM)	16 µg/mL (≈ 15.5 µM)	32 µg/mL (≈ 31 µM)	0.03 µg/mL (≈ 0.0291 µM)	0.5 µg/mL (≈ 0.484 µM)	0.5 µg/mL (≈ 0.484 µM)	1 µg/mL (≈ 0.969 µM)	0.5 µg/mL (≈ 0.484 µM)	32 µg/mL (≈ 31 µM)						
CC[C@H]1OC(=O)[C@H](C)[C@@H](O[C@H]2C[C@@](C)(OC)[C@@H](OC(=O)NCc3cn(Cc4cccc(C)c4)nn3)[C@H](C)O2)[C@H](C)[C@@H](O[C@@H]2O[C@H](C)C[C@H](N(C)C)[C@H]2O)[C@](C)(O)C[C@@H](C)CN(C)[C@H](C)[C@@H](O)[C@]1(C)O	0.5 µg/mL (≈ 0.512 µM)	32 µg/mL (≈ 32.7 µM)	16 µg/mL (≈ 16.4 µM)	32 µg/mL (≈ 32.7 µM)	0.03 µg/mL (≈ 0.0307 µM)	1 µg/mL (≈ 1.02 µM)	1 µg/mL (≈ 1.02 µM)	1 µg/mL (≈ 1.02 µM)	1 µg/mL (≈ 1.02 µM)	32 µg/mL (≈ 32.7 µM)						
CC[C@H]1OC(=O)[C@H](C)[C@@H](O[C@H]2C[C@@](C)(OC)[C@@H](OC(=O)NCc3cn(Cc4cccc(C)c4)nn3)[C@H](C)O2)[C@H](C)[C@@H](O[C@@H]2O[C@H](C)C[C@H](N(C)C)[C@H]2O)[C@](C)(O)C[C@@H](C)CN(C)[C@H](C)[C@H]2OC(=O)O[C@@]21C	1 µg/mL (≈ 0.997 µM)	128 µg/mL (≈ 128 µM)	32 µg/mL (≈ 31.9 µM)	64 µg/mL (≈ 63.8 µM)	0.25 µg/mL (≈ 0.249 µM)	2 µg/mL (≈ 1.99 µM)	2 µg/mL (≈ 1.99 µM)	2 µg/mL (≈ 1.99 µM)	4 µg/mL (≈ 3.99 µM)	64 µg/mL (≈ 63.8 µM)						
CC[C@H]1OC(=O)[C@H](C)[C@@H](O[C@H]2C[C@@](C)(OC)[C@@H](OC(=O)NCc3cn(Cc4c(Cl)cccc4Cl)nn3)[C@H](C)O2)[C@H](C)[C@@H](O[C@@H]2O[C@H](C)C[C@H](N(C)C)[C@H]2O)[C@](C)(O)C[C@@H](C)CN(C)[C@H](C)[C@H]2OC(=O)O[C@@]21C	1 µg/mL (≈ 0.945 µM)	128 µg/mL (≈ 121 µM)	32 µg/mL (≈ 30.2 µM)	64 µg/mL (≈ 60.5 µM)	0.125 µg/mL (≈ 0.118 µM)	0.25 µg/mL (≈ 0.236 µM)	0.25 µg/mL (≈ 0.236 µM)	4 µg/mL (≈ 3.78 µM)	1 µg/mL (≈ 0.945 µM)	16 µg/mL (≈ 15.1 µM)	16	1024	128			
CC[C@H]1OC(=O)[C@H](C)[C@@H](O[C@H]2C[C@@](C)(OC)[C@@H](OC(=O)NCc3cn(Cc4ccc(C)cc4)nn3)[C@H](C)O2)[C@H](C)[C@@H](O[C@@H]2O[C@H](C)C[C@H](N(C)C)[C@H]2O)[C@](C)(O)C[C@@H](C)CN(C)[C@H](C)[C@H]2OC(=O)O[C@@]21C	1 µg/mL (≈ 0.997 µM)	128 µg/mL (≈ 128 µM)	64 µg/mL (≈ 63.8 µM)	64 µg/mL (≈ 63.8 µM)	0.25 µg/mL (≈ 0.249 µM)	1 µg/mL (≈ 0.997 µM)	1 µg/mL (≈ 0.997 µM)	4 µg/mL (≈ 3.99 µM)	2 µg/mL (≈ 1.99 µM)	64 µg/mL (≈ 63.8 µM)						
CC[C@H]1OC(=O)[C@H](C)[C@@H](O[C@H]2C[C@@](C)(OC)[C@@H](OC(=O)NCc3cn(Cc4ccc([N+](=O)[O-])cc4)nn3)[C@H](C)O2)[C@H](C)[C@@H](O[C@@H]2O[C@H](C)C[C@H](N(C)C)[C@H]2O)[C@](C)(O)C[C@@H](C)CN(C)[C@H](C)[C@@H](O)[C@]1(C)O	1 µg/mL (≈ 0.992 µM)	32 µg/mL (≈ 31.7 µM)	16 µg/mL (≈ 15.9 µM)	32 µg/mL (≈ 31.7 µM)	0.03 µg/mL (≈ 0.0298 µM)	1 µg/mL (≈ 0.992 µM)	2 µg/mL (≈ 1.98 µM)	1 µg/mL (≈ 0.992 µM)	1 µg/mL (≈ 0.992 µM)	64 µg/mL (≈ 63.5 µM)						
CC[C@H]1OC(=O)[C@H](C)[C@@H](O[C@H]2C[C@@](C)(OC)[C@@H](OC(=O)NCc3cn(Cc4ccccc4C)nn3)[C@H](C)O2)[C@H](C)[C@@H](O[C@@H]2O[C@H](C)C[C@H](N(C)C)[C@H]2O)[C@](C)(O)C[C@@H](C)CN(C)[C@H](C)[C@@H](O)[C@]1(C)O	0.25 µg/mL (≈ 0.256 µM)	16 µg/mL (≈ 16.4 µM)	16 µg/mL (≈ 16.4 µM)	64 µg/mL (≈ 65.5 µM)	0.03 µg/mL (≈ 0.0307 µM)	0.5 µg/mL (≈ 0.512 µM)	0.5 µg/mL (≈ 0.512 µM)	1 µg/mL (≈ 1.02 µM)	0.5 µg/mL (≈ 0.512 µM)	64 µg/mL (≈ 65.5 µM)						
CC[C@H]1OC(=O)[C@H](C)[C@@H](O[C@H]2C[C@@](C)(OC)[C@@H](OC(=O)NCc3cn(Cc4ccccc4Cl)nn3)[C@H](C)O2)[C@H](C)[C@@H](O[C@@H]2O[C@H](C)C[C@H](N(C)C)[C@H]2O)[C@](C)(O)C[C@@H](C)CN(C)[C@H](C)[C@@H](OC(=O)NCc2ccc(OC)cc2)[C@]1(C)O	0.125 µg/mL (≈ 0.108 µM)	32 µg/mL (≈ 27.6 µM)	16 µg/mL (≈ 13.8 µM)	8 µg/mL (≈ 6.89 µM)	< 0.002 µg/mL	0.125 µg/mL (≈ 0.108 µM)	0.03 µg/mL (≈ 0.0258 µM)	0.03 µg/mL (≈ 0.0258 µM)	0.06 µg/mL (≈ 0.0517 µM)	8 µg/mL (≈ 6.89 µM)	32 - 133	1024 - 2048	1024 - 2133	1024 - 2133	1024 - 2048	32 - 133
